# Test results published in paper PMC6934184, “Selective DNA-PKcs inhibition extends the therapeutic index of localized radiotherapy and chemotherapy” (The Journal of Clinical Investigation, 2019).
# Biological target: T1, TESK2 (Homo sapiens, UniProt Q96S53)
# T1 construct: purchased Thermo Fisher Scientific (Life Technologies) SelectScreen
# Assay: SelectScreen LanthaScreen
# Format: binding
# Conditions: read-out: % displacement
# Procedure, shortened: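 NU5455 was profiled across the SelectScreen Broad panel of kinase activity and binding assays. Z'LYTE reactions such as CSF1R ran at apparent Km ATP, while the Adapta CAMK1 assay used ATP listed as 10. Values are given as percent.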
# T1 sequence (Q96S53 whole entry): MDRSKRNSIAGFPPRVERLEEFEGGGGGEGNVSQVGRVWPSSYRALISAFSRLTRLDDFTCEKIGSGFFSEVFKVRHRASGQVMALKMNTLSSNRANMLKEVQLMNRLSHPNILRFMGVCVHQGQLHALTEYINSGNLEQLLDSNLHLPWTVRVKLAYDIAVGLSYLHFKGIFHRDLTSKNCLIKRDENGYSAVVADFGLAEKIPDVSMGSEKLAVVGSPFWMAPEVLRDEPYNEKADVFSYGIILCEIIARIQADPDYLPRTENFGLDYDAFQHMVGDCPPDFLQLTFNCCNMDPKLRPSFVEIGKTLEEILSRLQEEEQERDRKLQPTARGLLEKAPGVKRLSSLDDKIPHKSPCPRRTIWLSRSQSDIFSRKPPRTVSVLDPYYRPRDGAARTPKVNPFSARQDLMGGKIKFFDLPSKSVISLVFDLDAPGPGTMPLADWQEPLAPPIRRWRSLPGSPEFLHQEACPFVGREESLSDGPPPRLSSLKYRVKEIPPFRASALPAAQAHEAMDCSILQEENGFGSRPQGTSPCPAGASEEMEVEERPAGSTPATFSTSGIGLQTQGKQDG
structure (smiles),measurement,value
CN(C(=O)CN1CCOCC1)c1ccc2sc3c(-c4cccc5c(=O)cc(N6CC7CCC(C6)O7)oc45)cccc3c2c1 [NU5455],inhibition at 1 µM,2.7%
